Reference: article PMC11477167, “Structure–Function Relationship of a Novel MTX-like Peptide (MTX1) Isolated and Characterized from the Venom of the Scorpion Maurus palmatus” (International Journal of Molecular Sciences, 2024)
Entries after “also recorded” stand apart in the source; their conditions may differ. Bridge positions count the residues as written; N and C are the ends. Peptide text beside a SMILES is read from it.

Legend:
rat Kv1.2 = target: T1, rat Kv1.2 (Rattus norvegicus, UniProt P63142); assay: Two-electrode voltage clamp, Kv1.2 expressed in Xenopus laevis oocytes; assay type: cell-based
T1 construct: expressed in transfected cells; host or cells: Xenopus laevis oocytes, cRNA injection
T1 sequence (P63142 whole entry): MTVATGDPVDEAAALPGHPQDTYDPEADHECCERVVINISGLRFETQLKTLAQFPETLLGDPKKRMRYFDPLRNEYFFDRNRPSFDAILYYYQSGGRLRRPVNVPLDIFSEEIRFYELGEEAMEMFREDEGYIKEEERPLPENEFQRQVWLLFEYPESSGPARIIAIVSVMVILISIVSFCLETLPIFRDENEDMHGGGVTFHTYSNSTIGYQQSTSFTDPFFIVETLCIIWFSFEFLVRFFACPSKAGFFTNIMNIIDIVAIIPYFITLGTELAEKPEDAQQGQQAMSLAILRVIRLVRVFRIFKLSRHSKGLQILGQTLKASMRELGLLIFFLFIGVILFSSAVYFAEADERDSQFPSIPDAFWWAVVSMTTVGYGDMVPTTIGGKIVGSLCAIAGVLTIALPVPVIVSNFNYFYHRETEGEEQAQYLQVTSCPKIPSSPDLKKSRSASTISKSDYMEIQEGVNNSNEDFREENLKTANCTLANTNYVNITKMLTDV
Excerpt: 4.11. Oocyte Preparation and Electrophysiological Recordings
The xenopus was anesthetized in a bath of tricaine solution. It was then placed on its back in a dissecting tank covered with alcohol-cleaned BenchGuard paper. A horizontal slit was made in the animal’s lower abdomen by incising a piece of the underlying muscle with the skin. The ootheca were then gently pulled outwards and a portion was cut out and transferred to a sterile Erlen tube containing MBS medium, leaving the rest in place in the ovary. Finally, the incision was closed using sterile, absorbable sutures.
Xenopus laevis oocytes at stages V and VI were retrieved and prepared for cRNA injection and electrophysiological recordings. The enzymatic elimination of oocyte follicular cell layers was carried out by employing 2 mg·mL^−1 collagenase IA (Sigma, St. Louis, MO, USA) in the classical Barth’s medium containing (in mm) 88 NaCl, 1 KCl, 0.82 MgSO4, 0.33 Ca(NO3)2, 0.41 CaCl2, 2.4 NaHCO3, and 15N-2-hydroxyethylpiperazine-N′-ethanesulfonic acid (Hepes), with a pH of 7.4 (NaOH). The plasmids were digested using Xba1 (rat Kv1.2) and EcoR1 (rat Kv1.3). The resultant linearized plasmids were transcribed using either a T7 or SP6 mMessage mMachine transcription kit (Ambion, Austin, TX, USA). Subsequently, cRNAs (1 µg·µL^−1) were cryopreserved in H2O at −80 °C. Injection of cells with 50 nL of cRNA (0.2 µg·µL^−1 rat Kv1.2, or Kv1.3 channels) took place 2 days later. To promote the expression of ion channels, the cells were cultured at 16 °C in a specified nutrient oocyte medium for 2–6 days prior to conducting current recordings. Oocyte currents were captured at 20–22 °C using conventional two-microelectrode techniques with a voltage-clamp amplifier (GeneClamp 500; Axon Instruments, Foster City, CA, USA) linked to a 16-bit AD/DA converter (Digidata 1200A, Axon Instruments). […] Voltage pulses were administered every 15 s, maintaining a holding potential of −80 mV. Current data were sampled at 10 kHz, subjected to low-pass filtration at 2 kHz through an eight-pole Bessel filter and archived on a computer for subsequent assessment. The extracellular solution for recording contained (in mM) 88 NaCl, 10 KCl, 2 MgCl2, 0.5 CaCl2, 0.5 niflumic acid, 5 Hepes, and 0.1% bovine serum albumin, with a pH of 7.4 (NaOH). The P/4 protocol was implemented for online subtraction of the leak and capacitive currents. Any residual capacitive artifacts were eliminated for visualization purposes. The peptide solutions of MTX1 were perfused into the recording chamber at a flow rate of 2 mL/min using a ValveBank4 apparatus (Automate Scientific Inc., St Berkeley, CA 94710, USA). Data analysis was conducted using the software patch clamp 6.0.3 (Axon Instruments, Foster City, CA, USA). The outcomes are presented as the mean ± SEM.

[1] = tested on: 125I-apamin binding site of rat brain synaptosomes (SKCa channels); assay: Competition binding with 125I-apamin on rat brain synaptosomes (SKCa channels)
Experimental: The rats were euthanized by dislocation and their brains were rapidly removed and placed on a cold plate. The brain tissue was suspended in a 10% (w/v) sucrose-HEPES buffer in a polytron homogenizer with a protease inhibitor. Synaptosomal membranes were prepared as previously described. The protein content of the membranes, determined by the […], was 0.92 µg/µL. The protein content was determined using a modified Lowry method, with assays conducted on the synaptosomal fraction P2 isolated from rat brain. MTX1 was reacted with Na [^125I] (Amersham Biosciences, Buckinghamshire, United Kingdom) in the presence of lactoperoxidase and H2O2 in 50 mM phosphate buffer at pH 7.2. The separation of free iodine was achieved by anion exchange chromatography using Dowex 1X-8 (Merck, Darmstadt, Germany). The mixture was then injected into a reverse-phase HPLC column (analytical RP-C18 Beckman, Ultrasphere, 5 μm, 4.6 × 250 mm). Solvent A consisted of 0.1% trifluoroacetic acid (v/v) in water, and solvent B consisted of 0.1% trifluoroacetic acid (v/v) in acetonitrile. The HPLC experiments were performed as previously described. Radioactivity was quantified using a Packard spectrometer (Crystal I1 multidetector system, San Francisco, CA, USA) with the native toxin eluted at 18 min. The iodination mixture yielded only two peaks (RT = 2 min and RdT = 25 min); approximately 70–85% of the radioactivity was linked to the peak (RT = 25 min), which was postulated to correspond to the mono-iod derivative.
4.10. Binding Assay for SKCa Channels
The process of iodination of apamin was executed utilizing IODO-GEN. In displacement assays, 50 μL of 0.1 nM ^125I-apamine (2000 Ci/mmol) was combined with 400 µL of synaptosome suspension (0.4 mg protein/mL). The samples were incubated with 50 µL of one of the competitor concentration series (MTX1, MTX or CHTX) in a final volume of 500 µL for 1 h at 0 °C. The incubation buffer consisted of 25 mM hydroxymethyl amino methane (Tris-HCl) (pH 7.2), 10 mM potassium chloride (KCl) and 0.1% BS. Following centrifugation for 10 min, the samples were centrifuged again and the resulting pellets were washed three times with 2 mL of the same buffer. The quantification of bound radioactivity was conducted utilizing (Packard Crystal II). The mean values of triplicate experiments are reported. Non-specific binding, characterized as less than 10% of total binding, was determined in the presence of an excess (10 nM) of unlabeled apamin.

C57BL/6 mice = assay: Neurotoxic activity in mice by intracerebroventricular injection (LD50); assay type: in vivo, mouse
Experimental: 4.5. The Neurotoxic Activity of MTX1 in Mice
To assess the LD50 of the MTX1, different doses of the peptide were administered to males C57BL/6 mice (20 ± 2 g) by an intracerebroventricular injection under ether anesthesia, which is considered the most sensitive route for scorpion toxins in mammals. Each dose was suspended/diluted in 5 μL of 0.1% (w/v) BSA and tested on six mice. Symptoms of toxicity were observed and recorded over a 24 h period. The median lethal dose (LD50) corresponds to the dose required to kill half of the tested mice.

[2] = tested on: 125I-CHTX binding site of rat brain synaptosomes (Kv channels); assay: Competition binding with 125I-CHTX on rat brain synaptosomes; details: conclusion in words
[3] = comparison in words (Kv1.2 and SKCa channels together)

CSCC[C@@H]1NC(=O)[C@@H]2CSSC[C@H](NC(=O)[C@H](CO)NC(=O)[C@@H](N)C(C)C)C(=O)N[C@@H]([C@@H](C)O)C(=O)NCC(=O)N[C@@H](CO)C(=O)N[C@@H](CCCCN)C(=O)N[C@@H](CCC(=O)O)C(=O)N[C@@H](CSSC[C@@H](C(=O)N[C@@H](CCCCN)C(=O)N[C@H]3CSSC[C@@H](C(N)=O)NC(=O)CNC(=O)[C@H](Cc4ccc(O)cc4)NC3=O)NC(=O)[C@H](CCCCN)NC(=O)[C@H](CCCNC(=N)N)NC(=O)[C@H](CC(N)=O)NC1=O)C(=O)N[C@@H](Cc1ccc(O)cc1)C(=O)N[C@@H](C)C(=O)N1CCC[C@H]1C(=O)N[C@H]1CSSC[C@H](NC(=O)CNC(=O)[C@H]([C@@H](C)O)NC(=O)[C@H](CCC(N)=O)NC(=O)[C@H](CCCCN)NC(=O)[C@H](CCCCN)NC1=O)C(=O)N1CCC[C@H]1C(=O)N[C@@H](CC(N)=O)C(=O)N[C@@H](C)C(=O)N[C@@H](CCCCN)C(=O)N2 [MTX1] (H-VSCTGSKECYAPCKKQTGCPNAKCMNRKCKCYGC-NH2; disulfide 3-24, 9-29, 13-19, 31-34; N-terminus and C-terminus assumed)
IC50 on Kv1.2 relative to MTX (rat Kv1.2; 0.26 nM of MTX1 against 0.8 nM of MTX): three times lower than that of MTX | Reduction of outward Kv1.2 currents over voltage (rat Kv1.2; 2.5 nM, extracellular application): markedly reduced outward Kv1.2 and Kv1.3 currents at all test voltages examined | inhibition at 0.0025 µM (rat Kv1.2; 2.5 nM, oocytes, read-out: Inhibition of Kv1.2 currents): 90% | Potency on Kv1.2 relative to MTX (rat Kv1.2; [3]): higher binding affinity; also recorded: more active than MTX on the Kv1.2 channel; also recorded: significantly more effective at inhibiting the Kv1.2 currents and SKCa channels | Reversibility on washing, Kv1.2 (rat Kv1.2; kinetics of inhibition, after washing): partial recovery after the washing | Hill coefficient, Kv1.2 concentration-response (rat Kv1.2; oocytes, one value printed for Kv1.2 and Kv1.3): 1.1 ± 0.1 | Potency on SKCa channels relative to MTX [1, 3]: higher binding affinity; also recorded: significantly more effective at inhibiting the Kv1.2 currents and SKCa channels | Affinity relative to MTX, apamin-sensitive SKCa channels ([1]; comparison of IC50 of MTX1 with IC50 of MTX (5 nM)): almost three times higher than that of MTX | IC50 ([1]; rat brain synaptosomes (0.4 mg protein/mL), 50 μL of 0.1 nM 125I-apamin, 1 h, 0 °C, pH 7.2, mean of triplicate, read-out: IC50, inhibition of 125I-apamin binding): 1.7 nM | Recognition of apamin receptor sites ([1]; rat brain synaptosomes, conclusion in words): recognizes apamin receptor sites with a high affinity and binds partially with these sites | Toxicity in mice (qualitative) (C57BL/6 mice; i.c.v. injection): highly toxic | Toxicity in mice relative to MTX (C57BL/6 mice; i.c.v., LD50 comparison with MTX): approximately eight times more lethal than MTX; also recorded: eight times more effectively than MTX; also recorded: eight times more toxicity than MTX | Dose with maximum fatality rate (C57BL/6 mice; i.c.v., doses 4, 6, 8, 10, 15 and 20 ng, six mice each): 20 ng | Time to death (C57BL/6 mice; i.c.v., doses 4–20 ng): 10 min | LD50 (C57BL/6 mice; i.c.v., male C57BL/6 mice (20 ± 2 g), six mice per dose, 4–20 ng, observed 24 h): 10 ng per mouse | LD50 (C57BL/6 mice; i.c.v., mice): 0.01 μg/mouse | Interaction with the CHTX-binding site [2]: partially interacted with the CHTX-binding site
